Like-named read-outs stand apart in the source and are kept apart here.
Columns and labels:
[1] = type: binding; settings: hydroxyapatite nanoparticles in PBS, single stain, FIG. 1
Experimental: Samples were analyzed using the Apogee A50 Nanoscale Flow Cytometer.
An isotype negative control was prepared for each Alendronate compound. […] (AL-Cy5) was Notdronate-Cy5 (NT-Cy5).

[2] = single stain

FITC alendronate [AL-FITC]
probe-positive events (AL-positive / NT-positive background) [1]: significantly higher AL-positive events

Sulfo-Cy5 alendronate [AL-Cy5]
probe-positive events (AL-positive / NT-positive background) [1]: significantly higher AL-positive events

fluorescein-4-butanol [NT-FITC]
probe-positive events, probe versus its isotype negative control ([2]; MGUS patient plasma, FIG. 4): higher count of events | probe-positive events, probe versus its isotype negative control ([2]; Multiple Myeloma patient plasma, FIG. 8): higher count of events | probe-positive events ([2]; healthy volunteer plasma, FIG. 2): significantly higher | probe-positive events, probe versus its isotype negative control ([2]; plasma of another MGUS patient, FIG. 6): higher count of events | probe-positive events (AL-positive / NT-positive background) [1]: minimal
